# Measured values taken from patent US11091428B2 (HAPLOGEN GMBH, priority 2016, dated 2021).
# Target: T1, PLA2G16 (Homo sapiens, UniProt P53816)
# T1 construct: Hexa-His (N); made in house; host or cells: E. coli BL21(DE3)
# T1 sequence (P53816 1-162): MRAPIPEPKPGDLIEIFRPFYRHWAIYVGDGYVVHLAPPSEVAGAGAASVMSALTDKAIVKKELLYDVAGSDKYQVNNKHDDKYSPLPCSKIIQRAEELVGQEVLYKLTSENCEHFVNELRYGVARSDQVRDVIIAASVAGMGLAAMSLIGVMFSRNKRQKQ
# Assay: Enzyme activity assay for PLA2G16 (Red/Green BODIPY PC-A2 fluorescence)
# Assay type: biochemical
# Settings: His-tagged PLA2G16, 4 min pre-incubation, 2 nM to 50 μM; read-out: IC50 values of the compounds determined in the enzyme activity assay for PLA2G16
# From the text: A cDNA for PLA2G16(NM_007069) was custom-synthesized by Genscript (Piscataway, USA) and inserted into a pET-based bacterial expression vector [Moffatt, B. A. and Studier, F. W. (1986) J. Mol. Biol. 189, 113-130; Rosenberg, A. H., Lade, B. N., Chui, D., Lin, S., Dunn, J. J., and Studier, F. W. (1987) Gene 56, 125-135], enabling the expression of N-terminally Hexa-His-tagged PLA2G16. E. coli BL21(DE3) (Agilent) were transformed with pET-His-PLA2G16according to the manufacturer's instructions and plated on Carbenicillin-containing agar plates (final concentration: 100 μg/mL). A single clone was in occulated in 100 mL LB medium supplemented with 100 μg/mL Carbenicillin and the in occulated culture was grown at 37° C. overnight in a rotary shaker. On the next day, the bacterial culture was diluted in LB medium supplemented with 100 μg/mL Carbenicillin (30 mL overnight culture in 800 mL total culture volume). Bacteria were grown at 37° C. until the OD600 reached 0.6. Gene expression was induced by addition of 1 mM isopropyl-β-D-thiogalactopyranosid (IPTG) for 2 h at 18° C. Subsequently, bacteria were harvested by centrifugation (15 min; 10,000×g; 4° C.) and frozen at −80° C. The bacterial pellet was resuspended in Buffer A (50 mM Tris/HCl pH 7.5, 500 mM NaCl, 5% glycerol, 5 mM β-Mercaptoethanol and 1 mM PMSF) and lysed by addition of 1 mg/mL lysozyme (Sigma Aldrich) and 100 μg/mL DNasel-(Roche). The sample was incubated at 30° C. for 30 min to allow lysis to occur. Then, the lysate was cleared by centrifugation (15,000×g, 15 min, 4° C.) and incubated with 1.5 mL Ni-NTA agarose suspension (Qiagen) for 60 min at 4° C. The Ni-NTA agarose was washed with 10 mL Buffer A. Bound protein was eluted by applying a manual gradient of Buffer A supplemented with increasing concentrations of imidazole (Sigma Aldrich; 25/50/75/100/250 mM). Purified fractions were analyzed by SDS-PAGE followed by Coomassie staining to assess the purity.
# Activity of the protein was assessed as follows: Red/Green BODIPY® PC-A2 (Invitrogen, 1 mM in DMSO) was mixed with equal volumes of 1,2-Dioleoyl-sn-glycero-3-phosphocholine (DOPC; Sigma Aldrich, 10 mM in Ethanol) and 1,2-Dioleoyl-sn-glycero-3-phospho-rac-(1-glycerol) (DOPG; Sigma Aldrich, 10 mM in Ethanol) and 0.5 volumes of Cholesterol (CHOL; Sigma Aldrich, 10 mM in Ethanol) and vortexed for 5 s. The mixture (Red/Green BODIPY® PC-A2/DOPC/DOPG/CHOL) was diluted 1:91.4 in activity assay buffer (50 mM Tris/HCl pH 8.5, 100 mM NaCl) using a small-orifice pipette tip under constant vortexing. In the following, this preparation will be referred to as the “substrate solution”.
# In order to evaluate their inhibitory potential, compounds were dissolved at 10 mM concentration in DMSO and directly spotted into assay plates (Corning, Cat. No. 3576) using acoustic liquid transfer (Labcyte Echo 525). Each compound was spotted at increasing concentrations, ranging from 2 nM to 50 μM (concentration in the final assay volume). 50 μl of PLA2G16 enzyme solution (diluted in activity buffer, supplemented with 5 mM L-Glutathione; Sigma Aldrich) was pre-incubated with compounds for 4 min., followed by addition of 50 μl of substrate solution. Fluorescence was recorded immediately after substrate addition for a total time of 10 min. using a SpectraMax M5 multimode reader (Excitation wavelength: 480 nm, emission wavelength: 530 nm). The relative increase of fluorescence over time is referred to as the enzyme activity. Half-maximal inhibitory concentrations (IC50) were derived by non-linear regression analysis using the drc package in R (R Development. Core Team, 2005).
row,SMILES,IC50 [nM]
1,"COc1ccccc1NC(=O)C(=O)[C@H](C)N(C=O)c1ccccc1OC [FP 82, (3S)—N-(2-Methoxyphenyl)-3-[N-(2-methoxyphenyl)formamido]-2-oxobutanamide]",1000 to 10000
2,"CC(C(=O)C(=O)NCC1CCCCC1)N(C)C(=O)CN(C)C (stereo not drawn) [FP 177, N-(Cyclohexylmethyl)-3-[2-(dimethylamino)-N-methylacetamido]-2-oxobutanamide]",1000 to 10000
3,"COc1ccccc1N(C=O)C(C)C(=O)C(=O)NC(C)c1cccc(Cl)c1 (stereo not drawn) [FP 84, N-[1-(3-Chlorophenyl)ethyl]-3-[N-(2-methoxyphenyl)formamido]-2-oxobutanamide]",< 1000
4,"COCC(=O)N(C)C(C)C(=O)C(=O)NCC1CCCCC1 (stereo not drawn) [FP 148, N-(Cyclohexylmethyl)-3-(2-methoxy-N-methylacetamido)-2-oxobutanamide]",< 1000
5,"COc1cccc(N(C=O)C(C)C(=O)C(=O)NCc2cccc(Cl)c2)c1 (stereo not drawn) [FP 4, N-[(3-Chlorophenyl)methyl]-3-[N-(3-methoxyphenyl)formamido]-2-oxo butanamide]",< 1000
6,"COc1ccccc1N(C(C)=O)C(C)C(=O)C(=O)NCc1cccc(Cl)c1 (stereo not drawn) [FP 185, N-[(3-Chlorophenyl)methyl]-3-[N-(2-methoxyphenyl)acetamido]-2-oxobutanamide]",< 1000
7,"Cc1cc(C(=O)N(C)C(C)C(=O)C(=O)NCC2CCCCC2)no1 (stereo not drawn) [FP 147, N-(Cyclohexylmethyl)-3-[N-methyl-1-(5-methyl-1,2-oxazol-3-yl)formamido]-2-oxobutanamide]",< 1000
8,"COc1ccccc1N(C=O)C(C(=O)C(=O)NCc1cccc(Cl)c1)c1ccccc1 (stereo not drawn) [FP 10, N-[(3-Chlorophenyl)methyl]-3-[N-(2-methoxyphenyl)formamido]-2-oxo-3-phenylpropanamide]",1000 to 10000
9,"CC(C)N(C=O)C(C)C(=O)C(=O)NCc1cccc(Cl)c1 (stereo not drawn) [FP 21, N-[(3-Chlorophenyl)methyl]-2-oxo-3-[N-(propan-2-yl)formamido]butanamide]",< 1000
10,"COc1ccc(N(C=O)C(C)C(=O)C(=O)NCc2cccc(Cl)c2)cc1 (stereo not drawn) [FP 5, N-[(3-Chlorophenyl)methyl]-3-[N-(4-methoxyphenyl)formamido]-2-oxobutanamide]",< 1000
11,"COc1ccccc1N(C=O)C(C)C(=O)C(=O)N(C)Cc1cccc(Cl)c1 (stereo not drawn) [FP 77, N-[(3-Chlorophenyl)methyl]-3-[N-(2-methoxyphenyl)formamido]-N-methyl-2-oxobutanamide]",< 1000
12,"CC(C(=O)C(=O)NCc1cccc(Cl)c1)N(C=O)c1ccccc1 (stereo not drawn) [FP 6, N-[(3-Chlorophenyl)methyl]-2-oxo-3-(N-phenylformamido)butanamide]",< 1000
13,"CC(=O)NCCCOCCCCOCCCNC(=O)C(=O)C1CCC(=O)N1Cc1ccc(Cl)cc1 (stereo not drawn) [FP 329, 2-{1-[(4-Chlorophenyl)methyl]-5-oxopyrrolidin-2-yl}-N-{3-[4-(3-acetamidopropoxy)butoxy]propyl}-2-oxoacetamide]",< 1000
14,"COc1ccccc1N(C=O)C(C)C(=O)C(=O)NCc1cc(Cl)cc(Cl)c1 (stereo not drawn) [FP 83, N-[(3,5-Dichlorophenyl)methyl]-3-[N-(2-methoxyphenyl)formamido]-2-oxobutanamide]",< 1000
15,"CC(C)N(C=O)C(C)C(=O)C(=O)NC(C)(C)c1cccc(Cl)c1 (stereo not drawn) [FP 26, N-[2-(3-Chlorophenyl)propan-2-yl]-2-oxo-3-[N-(propan-2-yl)formamido]butanamide]",1000 to 10000

# The remaining lines, values ahead:
row,IC50 [nM],SMILES
1,1000 to 10000,"CC(NC(=O)c1ccc(F)cc1)C(=O)C(=O)NCC1CC1 (stereo not drawn) [FP 153, N-(Cyclopropylmethyl)-3-[(4-fluorophenyl)formamido]-2-oxobutanamide]"
2,< 1000,"C[C@@H](O)CNC(=O)C(=O)C1CCC(=O)N1Cc1ccc(Cl)cc1 (stereo partly drawn) [FP 259, 2-{1-[(4-Chlorophenyl)methyl]-5-oxopyrrolidin-2-yl}-N-[(2R)-2-hydroxypropyl]-2-oxoacetamide]"
3,10000 to 50000,"COc1ccccc1N1C(=O)CC[C@H]1C(=O)C(=O)NCC1CC1 [FP 140, N-(cyclopropylmethyl)-2-[(2S)-1-(2-methoxyphenyl)-5-oxopyrrolidin-2-yl]-2-oxoacetamide]"
4,1000 to 10000,"COc1ccccc1N(C=O)C(C)(C)C(=O)C(=O)NCc1cccc(Cl)c1 [FP 9, N-[(3-Chlorophenyl)methyl]-3-[N-(2-methoxyphenyl)formamido]-3-methyl-2-oxobutanamide]"
5,< 1000,"COc1ccccc1N(C=O)C(C)C(=O)C(=O)NCc1cccc(C)c1 (stereo not drawn) [FP 87, 3-[N-(2-Methoxyphenyl)formamido]-N-[(3-methylphenyl)methyl]-2-oxo butanamide]"
6,< 1000,"COc1cccc(CNC(=O)C(=O)C(C)N(C=O)c2ccccc2OC)c1 (stereo not drawn) [FP 85, 3-[N-(2-Methoxyphenyl)formamido]-N-[(3-methoxyphenyl)methyl]-2-oxobutanamide]"
7,< 1000,"COc1ccccc1N(C=O)[C@@H](C)C(=O)C(=O)NCc1cccc(Cl)c1 (single isomer, unassigned) [FP 3]"
8,< 1000,"O=C(NC1CC1)C(=O)C1CCC(=O)N1Cc1ccccc1Cl (stereo not drawn) [FP 260, 2-{1-[(2-Chlorophenyl)methyl]-5-oxopyrrolidin-2-yl}-N-cyclopropyl-2-oxoacetamide]"
9,< 1000,"COc1ccccc1N(C=O)CC(=O)C(=O)NCc1cccc(Cl)c1 [FP 19, N-[(3-Chlorophenyl)methyl]-3-[N-(2-methoxyphenyl)formamido]-2-oxopropanamide]"
10,1000 to 10000,"COc1ccccc1N(C=O)C(C)C(=O)C(N)=O (stereo not drawn) [FP 14, 3-[N-(2-Methoxyphenyl)formamido]-2-oxobutanamide]"
11,< 1000,"COc1ccccc1N(C=O)[C@H](C)C(=O)C(=O)NCc1cccc(Cl)c1 (single isomer, unassigned) [FP 2]"
12,1000 to 10000,"COc1ccccc1N1C(=O)CC[C@H]1C(=O)C(=O)NCc1cccc(Cl)c1 [FP 139, N-[(3-Chlorophenyl)methyl]-2-[(2S)-1-(2-methoxyphenyl)-5-oxopyrrolidin-2-yl]-2-oxoacetamide]"
13,< 1000,"CC(C(=O)C(=O)NCc1ccccc1)N(C=O)C1CCCCC1 (stereo not drawn) [FP 113, N-Benzyl-3-(N-cyclohexylformamido)-2-oxobutanamide]"
14,< 1000,"COc1ccccc1N(C=O)C(C)C(=O)C(=O)NCc1ccccc1Cl (stereo not drawn) [FP 86, N-[(2-Chlorophenyl)methyl]-3-[N-(2-methoxyphenyl)formamido]-2-oxobutanamide]"
15,< 1000,"COc1ccccc1N(C=O)C(C)C(=O)C(=O)NCc1ccccc1 (stereo not drawn) [FP 88, N-Benzyl-3-[N-(2-methoxyphenyl)formamido]-2-oxobutanamide]"
16,< 1000,"COc1ccccc1N(C=O)C(C)C(=O)C(=O)NCC1CCOCC1 (stereo not drawn) [FP 103, 3-[N-(2-Methoxyphenyl)formamido]-m[(oxan-4-yl)methyl]-2-oxobutanamide]"
17,10000 to 50000,"COc1ccccc1N(C=O)C(C)C(=O)C(=O)N1CCc2ccc(Cl)cc2C1 (stereo not drawn) [FP 76, N-[4-(7-Chloro-1,2,3,4-tetrahydroisoquinolin-2-yl)-3,4-dioxobutan-2-yl]-N-(2-methoxy-phenyl)formamide]"
18,10000 to 50000,"CC(C(=O)C(=O)NCC1CCCCC1)N1CCCCC1=O (stereo not drawn) [FP 186, N-(Cyclohexylmethyl)-2-oxo-3-(2-oxopiperidin-1-yl)butanamide]"
